In patent US4231928A, “Antibacterial agents” (priority 1979, dated 1980):
Values after ≈ are worked out from the molar mass of the structure shown. Read-outs that look alike come from different tables or passages of the source.

Legend:
S. aureus = test: Serial twofold agar dilution (Mueller-Hinton agar), S. aureus; type: cell-based; conditions: Staphylococcus aureus
Method in brief: (§1)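 Compound was diluted twofold serially into Mueller-Hinton agar plates. Organisms were then applied with Steers' apparatus, and the MIC was read for each strain in a 31-organism primary panel and a 61-strain P. aeruginosa set.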

E. coli = test: Serial twofold agar dilution (Mueller-Hinton agar), E. coli; type: cell-based; conditions: Escherichia coli
Method in brief: as §1

K. pneumoniae = test: Serial twofold agar dilution (Mueller-Hinton agar), K. pneumoniae; type: cell-based; conditions: Klebsiella pneumoniae, K. pneumoniae A9977, Table 8, read-out: MIC
Method in brief: as §1

Klebsiella sp. = test: Serial twofold agar dilution (Mueller-Hinton agar), Klebsiella sp.; type: cell-based; conditions: Klebsiella sp. A20452, Mueller-Hinton agar, Table 8, read-out: MIC
Method in brief: as §1

E. cloacae = test: Serial twofold agar dilution (Mueller-Hinton agar), E. cloacae; type: cell-based; conditions: Enterobacter cloacae
Method in brief: as §1

P. mirabilis = test: Serial twofold agar dilution (Mueller-Hinton agar), P. mirabilis; type: cell-based; conditions: Proteus mirabilis, P. mirabilis A9900; Mueller-Hinton agar; Table 8; read-out: MIC
Method in brief: as §1

P. vulgaris = test: Serial twofold agar dilution (Mueller-Hinton agar), P. vulgaris; type: cell-based; conditions: Proteus vulgaris, P. vulgaris A9539, Table 8, read-out: MIC
Method in brief: as §1

P. morganii = test: Serial twofold agar dilution (Mueller-Hinton agar), P. morganii; type: cell-based; conditions: Morganella morganii, P. morganii A9553, Table 8, read-out: MIC
Method in brief: as §1

S. enteritidis = test: Serial twofold agar dilution (Mueller-Hinton agar), S. enteritidis; type: cell-based; conditions: Salmonella enterica, S. enteritidis A9531, Table 8, read-out: MIC
Method in brief: as §1

S. marcescens = test: Serial twofold agar dilution (Mueller-Hinton agar), S. marcescens; type: cell-based; conditions: Serratia marcescens, S. marcescens A20019, Table 8
Method in brief: as §1

Pseudomonas aeruginosa = test: Serial twofold agar dilution (Mueller-Hinton agar), P. aeruginosa; type: cell-based; conditions: Pseudomonas aeruginosa
Method in brief: as §1

Pseudomonas sp. = test: Serial twofold agar dilution (Mueller-Hinton agar), Pseudomonas sp.; type: cell-based; conditions: Pseudomonas sp. A20358, Table 8, read-out: MIC
Method in brief: as §1

[1] = Mouse blood levels after subcutaneous administration; conditions: in vivo, sc, 20 mg/kg
Procedure: Mouse blood levels of BB-[…] and BB-[…] were determined by subcutaneous administration of 20 mg/kg of the penicillin to groups of three mice. Blood samples collected from orbital sinuses were assayed by the paper disk agar-diffusion method on Sarcina lutea PC1 1001 plates.

`CC1(C)S[C@@H]2[C@H](NC(=O)C(C(=O)O)c3ccccc3)C(=O)N2[C@H]1C(=O)O` (stereo partly drawn) [Carbenicillin, reference compound] showed an MIC (S. aureus; S. aureus A15097, Table 8, read-out: MIC) of 50 µg/mL (≈ 132 µM), an MIC (S. aureus; S. aureus A20239, Table 8, read-out: MIC) of 6.3 µg/mL (≈ 16.6 µM) and an MIC (S. aureus; S. aureus A20240, Table 8, read-out: MIC) of 3.1 µg/mL (≈ 8.19 µM). It also gave an MIC (S. aureus; S. aureus A20701, Table 8, read-out: MIC) of 50 µg/mL (≈ 132 µM), an MIC (S. aureus; S. aureus BX-1633 A9606, Table 8, read-out: MIC) of 6.3 µg/mL (≈ 16.6 µM) and an MIC (S. aureus; S. aureus Smith A9537, Table 8, read-out: MIC) of 0.2 µg/mL (≈ 0.529 µM). The MIC (E. coli; E. coli A9635, Table 8, read-out: MIC) was 6.3 µg/mL (≈ 16.6 µM), the MIC (E. coli; E. coli A9844, Table 8, read-out: MIC) was 0.4 µg/mL (≈ 1.06 µM) and the MIC (E. coli; E. coli A20366, Table 8, read-out: MIC) was greater than 100 µg/mL. The MIC (E. coli; E. coli A20520, Table 8, read-out: MIC) was 1.6 µg/mL (≈ 4.23 µM), the MIC (E. coli; E. coli A20664, Table 8, read-out: MIC) was 0.8 µg/mL (≈ 2.11 µM) and the MIC (E. coli; E. coli A20732, Table 8, read-out: MIC) was greater than 100 µg/mL. For the same compound, the MIC (E. coli; E. coli A20898, Table 8, read-out: MIC) was greater than 100 µg/mL, the MIC (E. coli; E. coli Juhl A15119, Table 8, read-out: MIC) was 3.1 µg/mL (≈ 8.19 µM) and the MIC (E. coli; E. coli NIHJ, Table 8, read-out: MIC) was 0.4 µg/mL (≈ 1.06 µM). It also gave an MIC (K. pneumoniae) of 3.1 µg/mL (≈ 8.19 µM), an MIC (Klebsiella sp.) of 6.3 µg/mL (≈ 16.6 µM) and an MIC (E. cloacae; E. cloacae A9656, Table 8) of 3.1 µg/mL (≈ 8.19 µM). For the same compound, the MIC (E. cloacae; E. cloacae A9657, Table 8) was 25 µg/mL (≈ 66.1 µM), the MIC (E. cloacae; E. cloacae A9659, Table 8) was 3.1 µg/mL (≈ 8.19 µM) and the MIC (P. mirabilis) was 0.4 µg/mL (≈ 1.06 µM). The MIC (P. vulgaris) was 1.6 µg/mL (≈ 4.23 µM), the MIC (P. morganii) was greater than 100 µg/mL and the MIC (S. enteritidis) was 0.8 µg/mL (≈ 2.11 µM). It also gave an MIC (S. marcescens) of 3.1 µg/mL (≈ 8.19 µM), an MIC (Pseudomonas aeruginosa; 61 strains of P. aeruginosa, Table 9, read-out: Geometric mean of MIC) of 30 µg/mL (≈ 79.2 µM) and an MIC (Pseudomonas aeruginosa; ATCC19660, Pa-14 ATCC 19660 A20325, Mueller-Hinton agar, Table 9, read-out: MIC) of 50 µg/mL (≈ 132 µM). For the same compound, the MIC (Pseudomonas aeruginosa; GN315, Pa-27 GN315 A21294, Mueller-Hinton agar, Table 9, read-out: MIC) was 25 µg/mL (≈ 66.1 µM), the MIC (Pseudomonas aeruginosa; GN4925, Pa-45 GN 4925, Mueller-Hinton agar, Table 9, read-out: MIC) was 100 µg/mL (≈ 264 µM) and the MIC (Pseudomonas aeruginosa; P. aeruginosa A9843, Mueller-Hinton agar, Table 8, read-out: MIC) was 25 µg/mL (≈ 66.1 µM). For the same compound, the MIC (Pseudomonas aeruginosa; P. aeruginosa A9930, Mueller-Hinton agar, Table 8, read-out: MIC) was 25 µg/mL (≈ 66.1 µM), the MIC (Pseudomonas aeruginosa; P. aeruginosa A15150, Mueller-Hinton agar, Table 8, read-out: MIC) was 25 µg/mL (≈ 66.1 µM) and the MIC (Pseudomonas aeruginosa; P. aeruginosa A20717, Mueller-Hinton agar, Table 8, read-out: MIC) was 100 µg/mL (≈ 264 µM). For the same compound, the MIC (Pseudomonas aeruginosa; Pa-1 D15, Mueller-Hinton agar, Table 9, read-out: MIC) was 12.5 µg/mL (≈ 33 µM), the MIC (Pseudomonas aeruginosa; Pa-3 1449 V.A A9930, Mueller-Hinton agar, Table 9, read-out: MIC) was 12.5 µg/mL (≈ 33 µM) and the MIC (Pseudomonas aeruginosa; Pa-5 M4865, K.C A15150, Mueller-Hinton agar, Table 9, read-out: MIC) was 6.3 µg/mL (≈ 16.6 µM). The MIC (Pseudomonas aeruginosa; Pa-6 No. 5 Levitan A15194, Mueller-Hinton agar, Table 9, read-out: MIC) was greater than 100 µg/mL, the MIC (Pseudomonas aeruginosa; Pa-7 A9843, Mueller-Hinton agar, Table 9, read-out: MIC) was 50 µg/mL (≈ 132 µM) and the MIC (Pseudomonas aeruginosa; Pa-10 A21479, Mueller-Hinton agar, Table 9, read-out: MIC) was greater than 100 µg/mL. It also gave an MIC (Pseudomonas aeruginosa; Pa-12 A20653, Mueller-Hinton agar, Table 9, read-out: MIC) of 50 µg/mL (≈ 132 µM), an MIC (Pseudomonas aeruginosa; Pa-15 A20717, Mueller-Hinton agar, Table 9, read-out: MIC) greater than 100 µg/mL and an MIC (Pseudomonas aeruginosa; Pa-16 #130 A20718, Mueller-Hinton agar, Table 9, read-out: MIC) of 6.3 µg/mL (≈ 16.6 µM). The MIC (Pseudomonas aeruginosa; Pa-17 H6, D114, Mueller-Hinton agar, Table 9, read-out: MIC) was 12.5 µg/mL (≈ 33 µM), the MIC (Pseudomonas aeruginosa; Pa-18 H8, D121, Mueller-Hinton agar, Table 9, read-out: MIC) was 3.1 µg/mL (≈ 8.19 µM) and the MIC (Pseudomonas aeruginosa; Pa-19 A20229, Mueller-Hinton agar, Table 9, read-out: MIC) was 12.5 µg/mL (≈ 33 µM). For the same compound, the MIC (Pseudomonas aeruginosa; Pa-24 A20896, Mueller-Hinton agar, Table 9, read-out: MIC) was greater than 100 µg/mL, the MIC (Pseudomonas aeruginosa; Pa-25 A20897, Mueller-Hinton agar, Table 9, read-out: MIC) was 3.1 µg/mL (≈ 8.19 µM) and the MIC (Pseudomonas aeruginosa; Pa-26 PS32, Mueller-Hinton agar, Table 9, read-out: MIC) was 0.4 µg/mL (≈ 1.06 µM). It also gave an MIC (Pseudomonas aeruginosa; Pa-28 C.P.H. 10527/72, Mueller-Hinton agar, Table 9, read-out: MIC) of 50 µg/mL (≈ 132 µM), an MIC (Pseudomonas aeruginosa; Pa-31 A20594, Mueller-Hinton agar, Table 9, read-out: MIC) of 12.5 µg/mL (≈ 33 µM) and an MIC (Pseudomonas aeruginosa; Pa-32 A20595, Mueller-Hinton agar, Table 9, read-out: MIC) of 50 µg/mL (≈ 132 µM). It also gave an MIC (Pseudomonas aeruginosa; Pa-33 A20598, Mueller-Hinton agar, Table 9, read-out: MIC) of 12.5 µg/mL (≈ 33 µM), an MIC (Pseudomonas aeruginosa; Pa-35, Mueller-Hinton agar, Table 9, read-out: MIC) of 100 µg/mL (≈ 264 µM) and an MIC (Pseudomonas aeruginosa; Pa-36, Mueller-Hinton agar, Table 9, read-out: MIC) of 1.6 µg/mL (≈ 4.23 µM). The MIC (Pseudomonas aeruginosa; Pa-37 A20130, Mueller-Hinton agar, Table 9, read-out: MIC) was 50 µg/mL (≈ 132 µM), the MIC (Pseudomonas aeruginosa; Pa-38 A20349, Mueller-Hinton agar, Table 9, read-out: MIC) was 100 µg/mL (≈ 264 µM) and the MIC (Pseudomonas aeruginosa; Pa-39 A20641, Mueller-Hinton agar, Table 9, read-out: MIC) was 12.5 µg/mL (≈ 33 µM). The MIC (Pseudomonas aeruginosa; Pa-42 A21229, Mueller-Hinton agar, Table 9, read-out: MIC) was greater than 100 µg/mL, the MIC (Pseudomonas aeruginosa; Pa-43 A21233, Mueller-Hinton agar, Table 9, read-out: MIC) was 50 µg/mL (≈ 132 µM) and the MIC (Pseudomonas aeruginosa; Pa-44 A21274, Mueller-Hinton agar, Table 9, read-out: MIC) was 50 µg/mL (≈ 132 µM). It also gave an MIC (Pseudomonas aeruginosa; Pa-52 A9926, Mueller-Hinton agar, Table 9, read-out: MIC) of 50 µg/mL (≈ 132 µM), an MIC (Pseudomonas aeruginosa; Pa-54 A20128, Mueller-Hinton agar, Table 9, read-out: MIC) of 50 µg/mL (≈ 132 µM) and an MIC (Pseudomonas aeruginosa; Pa-55 A20227, Mueller-Hinton agar, Table 9, read-out: MIC) of 50 µg/mL (≈ 132 µM). It also gave an MIC (Pseudomonas aeruginosa; Pa-57 A20546, Mueller-Hinton agar, Table 9, read-out: MIC) of 50 µg/mL (≈ 132 µM), an MIC (Pseudomonas aeruginosa; Pa-58 A20557, Mueller-Hinton agar, Table 9, read-out: MIC) of 50 µg/mL (≈ 132 µM) and an MIC (Pseudomonas aeruginosa; Pa-61 A20726, Mueller-Hinton agar, Table 9, read-out: MIC) of 50 µg/mL (≈ 132 µM). It also gave an MIC (Pseudomonas aeruginosa; Pa-62 A21213, Mueller-Hinton agar, Table 9, read-out: MIC) greater than 100 µg/mL, an MIC (Pseudomonas aeruginosa; Pa-66 A21434, Mueller-Hinton agar, Table 9, read-out: MIC) of 50 µg/mL (≈ 132 µM) and an MIC (Pseudomonas aeruginosa; Pa-67 A21509, Mueller-Hinton agar, Table 9, read-out: MIC) of 50 µg/mL (≈ 132 µM). For the same compound, the MIC (Pseudomonas aeruginosa; Pa-68 A21510, Mueller-Hinton agar, Table 9, read-out: MIC) was 50 µg/mL (≈ 132 µM), the MIC (Pseudomonas aeruginosa; Pa-69 A21587, Mueller-Hinton agar, Table 9, read-out: MIC) was 100 µg/mL (≈ 264 µM) and the MIC (Pseudomonas sp.) was 3.1 µg/mL (≈ 8.19 µM). It also gave a concentration at 0.25 h [1] of 11500 ng/mL, a concentration at 0.5 h [1] of 9000 ng/mL and a concentration at 1 h [1] of 5800 ng/mL.
